{"source": "paper PMC8581430", "about": "“Peptide ligands targeting FGF receptors promote recovery from dorsal root crush injury via AKT/mTOR signaling” (Theranostics, 2021)", "test_system": "FGFR (phosphorylated) in DRG explants", "experiment": "Western blot of phosphorylated FGFR in ex vivo DRG explants", "assay_type": "cell-based, Sprague-Dawley rat", "details": "CH02 20 μM + BGJ398 2 μM, 4 h, n = 3", "description": "Figure 5 Role of FGFR signaling in response to the CH02 peptide on promoting nerve regeneration. (A) Western blot analysis of phosphorylated FGFR expression in C5-T1 DRGs subjected to dorsal root crush injury, followed by CH02 treatment (20 μM). DRGs were collected after 3 days. Glyceraldehyde-3-phosphate dehydrogenase (GAPDH) antibodies were used as the loading control. (B) Western blot analysis of phosphorylated FGFR expression in ex vivo cultured DRG explants of adult Sprague-Dawley rats in response to CH02 treatment at different induction times. […] (D-F) Quantification of p-FGFR expression levels in panels A, B, and C. n = 3 independent experiments. Relative protein expression levels were quantified after normalization to FGFR2 or FGFR1. […] (H) Quantification of axon growth in DRG explants (G) using Neurite-J software (n = 5 for each condition; *control vs. CH02; #control vs. BGJ398; **p < 0.01, ***p < 0.001, ****p < 0.0001, #p < 0.05, ##p < 0.01 by two-way ANOVA with Dunnett's test; mean ± SEM). […] Images of random neurons were acquired by fluorescence microscopy. […] (J) Quantification of the longest axon length of each neuron randomly selected from (I) using Image-Pro Plus 6.0 software (n = 100 for each condition; *p < 0.05, **p < 0.01, ****p < 0.0001 by one-way ANOVA with Dunnett's; ns, not significant; mean ± SD). […]", "data": [{"smiles": "CCN1CCN(c2ccc(Nc3cc(N(C)C(=O)Nc4c(Cl)c(OC)cc(OC)c4Cl)ncn3)cc2)CC1", "note": "[BGJ398]", "values": [{"measurement": "effect of inhibitor on CH02-upregulated phosphorylated FGFR", "value": "counteracted CH02 effects on upregulated phosphorylated FGFR levels"}]}]}
